Measurements from patent publication US20250295799A1, “ANTIBODY-DRUG CONJUGATES TARGETING GLYPICAN-3 AND METHODS OF USE” (Zymeworks BC Inc., priority 2022, published 2025).

How the values were obtained:
[1] = test system: GFP-transfected CHO cells; experiment: Binding to transfected CHO-S cells by flow cytometry (negative transfection control)
Experimental: Briefly, CHO—S cells were transiently transfected for −24 hours with a pTT5-based expression plasmid encoding human GPC3 or cynomolgus monkey GPC3, 0.5 μg DNA per 1 million cells, using the Neon™ Transfection System (Thermo Fisher Scientific Corp., Waltham, MA), to transiently express human or cynomolgus monkey GPC3. Cells transfected with GFP were used as negative transfection controls. Following transfection, cells were seeded at 50,000 cells/well in V-bottom 96-well plates and treated with antibody for 24 hours at 4° C. to prevent internalization. […] Following incubation and washing, fluorescence was detected by flow cytometry on a BD LSRFortessa™ Cell Analyzer (BD Biosciences, Franklin Lake, NJ) with 1,000 minimum events collected per well. AF647/APC-A GeoMean (fluorescence signal geometric mean, proportional to anti-Human AF647 binding) in live cell population was plotted against antibody concentration using GraphPad Prism Version 9 (GraphPad Software, San Diego, CA). The Bmax and Kd values were derived from the “Specific binding with Hill slope” nonlinear regression curve fit in GraphPad Prism Version 9.

[2] = test system: JHH-5 cells (mid GPC3-expressing); experiment: Internalization by flow cytometry (quenched AF488); assay type: cell-based; details: 5 nM, 24 h
Experimental: Cells were seeded at 50,000 cells/well in 48-well plates and incubated overnight under standard culturing conditions (37° C./5% CO2) Gibco™ William's E Medium, GlutaMAX™ Supplement (Thermo Fisher Scientific, Waltham, MA; Cat. No. 32551020) with 10% FBS (Thermo Fisher Scientific, Waltham, MA; Cat. No. 12483020). Coupled antibodies were added to cells the following day at 5 nM and incubated under standard culturing conditions for 24 hours to allow for internalization. Following incubation, cells were dissociated, washed, and surface AF488 fluorescence was quenched using an anti-AF488 antibody (Life Technologies, Carlsbad, CA; Cat. No. A-11094) at 100 nM for 30 minutes at 4° C. Quenched AF488 fluorescence (internalized fluorescence) was detected by flow cytometry on a BD LSRFortessa™ Cell Analyzer (BD Biosciences, Franklin Lake, NJ) with 1,000 minimum events collected per well.
Briefly, plasma stress was carried out by incubating M3-H18L6 LC-modified antibodies in mouse plasma (BioIVT, Westbury, NY; Cat. No. MSE00PL38NC-0103070) for 14 days in a 37° C./5% CO2 incubator. […] Following incubation and washing, fluorescence was detected by flow cytometry on a BD LSRFortessa™ Cell Analyzer (BD Biosciences, Franklin Lake, NJ) with 1,000 minimum events collected per well. […]

For palivizumab, the “binding to GFP-transfected CHO cells, in words” value [1] was “did not exhibit any binding” and the “internalization, in words” value [2] was “minimal internalization”.
